According to a melting point compilation (Tetko et al.; mined from patent text by program, amines drawn as free bases though some values may be those of a salt):

| melting point [°C] | Structure (SMILES) |
| --- | --- |
| 222 to 224 | O=c1cc(-c2ccccc2)c2c(OCc3nnn[nH]3)cc(OCc3nnn[nH]3)cc2o1 |
| 175 | O=C(O)Cc1c(-c2ccccc2)c(=O)[nH]c2cc(Cl)ccc12 |
| 140 to 142 | O=C(Nc1ccccc1OCc1ccccc1)c1nnnn1Cc1ccccc1 |
| 252 to 254 | NC(=O)c1ncn2c(-c3cccc(Cl)c3)ccnc12 |
| 107 to 108 | CS(=O)(=O)c1cccc(Cc2cc3c(F)ccc(-c4cccc(C(=O)NCC(N)=O)c4)c3s2)c1 |
| 184 | Clc1cccc(C(c2ccnc3ccccc23)n2ccnc2)c1 (configuration not stated) |
| 98 to 99 | CCc1cccc(CC(=O)O)c1OCCCc1cn(-c2ccc(C(F)(F)F)cn2)nc1C(C)(C)C |
| 132 to 138 | CC(C)[C@H]1c2ccc(F)cc2CC[C@]1(O)CC(=O)N(C)CCCc1nc2ccccc2[nH]1 |
| 250 to 252 | C[Si](C)(C)C#Cc1cc2ccc(-n3nc4ccc5ccccc5c4n3)cc2oc1=O |
| 93 to 96 | CC1(c2ccc(Cl)c(Cl)c2)CN(C(=O)c2ccc(F)c3ccccc23)CCN1C(=O)CNC1CCN(Cc2ccccc2)CC1 (racemic) |
| 81 to 87 | O=C1C(CCO)Oc2ccccc2N1Cc1ccc2ccccc2c1 (configuration not stated) |
| 107 to 110 | NCc1ccc2c(c1)ncn2-c1cccc(-c2cccnc2)c1 |
| > 250 | CC1(C)Oc2ccc(-c3c(N)c(=O)c3=O)cc2[C@@H](N2Cc3ccccc3C2=O)[C@@H]1O (relative stereo) |
| 282 to 283 | COc1cccc(CN2CC(=O)Nc3ncc(-c4ccc(O)cc4)nc32)c1 |
| 300 | O=c1[nH]c2ccccc2nc1-c1ccc(Cl)cc1Cl |
| 234 | O=S(=O)(c1ccc(O)cc1)c1c(-c2ccccc2)cn2ccccc12 |

More lines, now with the values behind:

| Structure (SMILES) | melting point [°C] |
| --- | --- |
| Nc1nc2c3ccccc3ccn2n1 | 164 to 165 |
| Cc1ccc2c(c1C)OC(C(F)(F)F)C(C(=O)O)=C2 (configuration not stated) | 245 to 247 |
| CC(=O)Nc1nc2c(Oc3cc(-c4ccc(C(F)(F)F)cc4)ncn3)cccc2o1 | 205 |
| CC(C)Cn1c(=O)c2nc(-c3ccc(/C=C/C(=O)O)cc3)[nH]c2n(CC(C)C)c1=O | > 300 |
| FC(F)(F)c1ccc(/C=C/C=C/[C@H]2CC[C@H](SCc3ccc(Cl)cc3)CC2)cc1 | 142 to 144 |
| CC(C)(C)OC(=O)NCCOc1noc2c(C#N)cccc12 | 91 to 92 |
| CSc1ccc2c(c1)C=C(C(=O)O)C(C(F)(F)F)O2 (configuration not stated) | 166 to 168 |
| COC(=O)c1cccc2c1NCC2 | 70 to 73 |
| Cc1nccn1CCCCc1ccc(OCc2coc(/C=C/c3ccccc3)n2)cc1 | 122 to 123 |
| Cc1cc2cc(CN3CCCC3)cnc2cc1NC(=O)c1ccc(-c2ccc(F)cc2)cc1F | 174 to 177 |
| Cc1cc(=S)c(OCC(=O)O)co1 | 120 to 125 |
| COc1ccc(C#Cc2ccc(OC)cc2)cc1 | 140 to 142 |
| COc1ccc(C(=O)N(C(=O)c2ccc(OC)cc2)c2nc3ccc(N4CCN(Cc5ccccc5)CC4)cc3c(NCc3ccccc3)c2C#N)cc1 | 157 |
| CC(=Cc1ccc(C(=O)O)cc1)c1ccc2c(c1)N(C)CCC2(C)C | 194 to 196 |
| C=C(Br)c1cc(O)cc2nc(-c3ccc(O)cc3)oc12 | 228 to 230 |
| O=C(NCCCCc1ccccc1)OC1CCN(C(=O)OC2CCN(C(=O)Oc3ccc(Oc4ccccc4)cc3)CC2)CC1 | 50 to 60 |
| CCOCc1nc2c(N)nc3cc(N4CCCCS4(=O)=O)ccc3c2n1CCCOC(C)C | 172 to 174 |
| C=C1OC(c2ccc(Cl)cc2)=NC1(C)CC (configuration not stated) | 55 to 57 |
| O=C(O)CCCCCCCCc1ccco1 | 31 to 32 |
| O=C(c1ccnc(F)c1)N1CCC[C@H](c2noc(-c3ccc(F)cc3)n2)C1 | 117 to 119 |
| COCCOC(=O)c1ccccc1Nc1nc(Nc2cc3c(cc2OC)CCN(CCO)CC3)ncc1Cl | 125 to 131 |
